Columns and labels:
human GPR40 = target: T1, human GPR40 (Homo sapiens, UniProt O14842); test: Inositol phosphate accumulation assay (IP1 HTRF) in CHO-K1 cells expressing human GPR40; format: cell-based; conditions: 90 min
T1 construct: host or cells: CHO-K1
Method: CHO-K1 cells expressing human GPR40 were purchased from DiscoverX (95-1005C2). HEK293 cells expressing mouse FFAR1 were prepared using a mouse FFAR1 carrying plasmid purchased from OriGene Technologies (MR222997). The cells were transfected using Lipofectamine 2000 using manufacturer instructions and stable cell line was established from a single cell using geneticine selection. Assay ready frozen (ARF) cells were prepared and used throughout the study.
The assay was performed in a 384-well plate format using IP1 assay kit from Cis-Bio. ARF cells expressing FFAR1 (mouse and human) were thawed, washed and then plated in the appropriate medium (F12 based medium for CHO hFFAR1 and DMEM based medium for HEK293 mFFAR1-both were supplemented with 10% FBS and penicillin/streptomycin). 20 μL of 3.5×10^5 cells/mL were plated on a Poly D-Lysine coated 384-well white plate. The cells were then incubated for 16 hr at 37° C./5% CO2. After 16 hr the medium was removed and 15 μL of stimulation buffer containing the test compounds was added to the cells. The plates were then incubated for 90 min at 37° C./5% CO2. 5 μL of detection buffer (prepared as described in the IP-one kit) was added to each well and the plates were incubated at RT for 1 hr.
[…] was measured using ClarioSTAR plate reader, calculating the ratio between emissions at 665 nm and 620 nm (HTRF ratio). HTRF ratio for positive (Max) and negative (Min) controls were used to normalize HTRF data and generate values for % activity. EC50 and Max activity values were determined using a standard 4-parameter fit.

[1] = In vivo plasma levels in mice after oral gavage, with unbound exposure from plasma protein binding; conditions: male C57BL/6J mice, 30 mg/kg oral gavage; for Exposure (nM) (unbound), unbound exposure in plasma: total exposure x free fraction; for concentration at 5 h / concentration at 2 h: mouse, plasma, read-out: Exposure (nM), total exposure in plasma
Method: Male C57BL/6J mice 10-12 weeks old were dosed with test article (30 mg/kg) or vehicle by oral gavage. Animals were euthanized with carbon dioxide at 2 h or 5 h post dose. Blood was collected for measurement of plasma concentrations of test article. Unbound exposure was calculated by multiplying the measured total exposure by the free fraction as assessed from plasma protein binding.
Plasma protein binding to isotonic phosphate buffer (PBS) containing 10% C57 BL/6 mouse plasma was determined using equilibrium dialysis of plasma spiked with test article (2 μM) against a dialysis buffer (100 mM sodium phosphate and 150 mM NaCl). At the end of the dialysis (4 hr), aliquots of the plasma and buffer were processed by protein precipitation for LC-MS/MS analysis to quantitate the test article.
Results for exemplary compounds (total exposure in plasma and unbound exposure in plasma; ratio of EC50 to unbound exposure in plasma) are shown in Table 2.

T1 sequence (O14842 whole entry): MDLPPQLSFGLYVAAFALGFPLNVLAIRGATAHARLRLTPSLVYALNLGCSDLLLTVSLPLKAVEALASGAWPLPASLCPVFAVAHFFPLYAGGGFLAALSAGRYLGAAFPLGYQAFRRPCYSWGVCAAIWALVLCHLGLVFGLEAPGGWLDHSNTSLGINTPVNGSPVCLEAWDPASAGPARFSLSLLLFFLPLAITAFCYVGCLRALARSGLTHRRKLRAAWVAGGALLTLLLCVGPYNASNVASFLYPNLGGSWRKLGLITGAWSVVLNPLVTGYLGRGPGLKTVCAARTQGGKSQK

SMILES	EC50 (human GPR40) [nM]	other results
COc1cc(-c2ccc(COc3cccc(C(CS(=O)(=O)O)C4CC4)c3)cc2CN(C(C)C)C(C)C)c(F)cn1 (centres unmarked) [Compound 1, 2-cyclopropyl-2-(3-((3-((diisopropylamino)methyl)-4-(5-fluoro-2-methoxypyridin-4-yl)benzyl)oxy)phenyl)ethanesulfonic acid]	> 1000	–
COc1cc(-c2ccc(COc3cccc(C(C4CC4)C(C)P(=O)(O)OC)c3)cc2CN(C(C)C)C(C)C)c(F)cn1 (centres unmarked) [Compound 7, methyl hydrogen (1-cyclopropyl-1-(3-((3-((diisopropylamino)methyl)-4-(5-fluoro-2-methoxypyridin-4-yl)benzyl)oxy)phenyl)propan-2-yl)phosphonate]	> 1000	–
COc1cc(-c2ccc(COc3cccc(C(CS(=O)(=O)O)C4CC4)c3)cc2CN(C(C)C)C(C)C)c(F)cn1 (single isomer, unassigned) [Compound 15, 2-cyclopropyl-2-(3-((3-((diisopropylamino)methyl)-4-(5-fluoro-2-methoxypyridin-4-yl)benzyl)oxy)phenyl)ethanesulfonic acid]	> 1000	–
COc1cc(-c2ccc(COc3cccc(C(C)CP(C)(=O)O)c3)cc2CN(C(C)C)C(C)C)c(F)cn1 (single isomer, unassigned) [Compound 36, (2-(3-((3-((diisopropylamino)methyl)-4-(5-fluoro-2-methoxypyridin-4-yl)benzyl)oxy)phenyl)propyl)(methyl)phosphinic acid]	> 1000	–
COc1cc(-c2ccc(OCc3cccc(C(CP(C)(=O)O)C4CC4)c3)cc2CN(C(C)C)C(C)C)c(F)cn1 (centres unmarked) [Compound 21, (2-cyclopropyl-2-(3-((3-((diisopropylamino)methyl)-4-(5-fluoro-2-methoxypyridin-4-yl)phenoxy)methyl)phenyl)ethyl)(methyl)phosphinic acid]	50 to 250	–
CCP(=O)(O)CC(c1cccc(OCc2ccc(-c3cc(OC)ncc3F)c(CN(C(C)C)C(C)C)c2)c1)C1CC1 (single isomer, unassigned) [Compound 20, (2-cyclopropyl-2-(3-((3-((diisopropylamino)methyl)-4-(5-fluoro-2-methoxypyridin-4-yl)benzyl)oxy)phenyl)ethyl)(ethyl)phosphinic acid]	> 1000	–
COc1cc(-c2ccc(COc3cccc(C(CS(=O)(=O)O)C4CC4)c3)cc2CN(C(C)C)C(C)C)c(F)cn1 (single isomer, unassigned) [Compound 14, 2-cyclopropyl-2-(3-((3-((diisopropylamino)methyl)-4-(5-fluoro-2-methoxypyridin-4-yl)benzyl)oxy)phenyl)ethanesulfonic acid]	> 1000	–

The next lines start with results.

EC50 (human GPR40) [nM]	SMILES	other results
≤ 50	COc1ccc(F)c(-c2ccc(COc3cccc([C@@H](CP(C)(=O)O)C4CC4)c3)cc2[C@@H](OC)C(C)(C)C)c1 [Compound 24, ((S)-2-cyclopropyl-2-(3-((2′-fluoro-5′-methoxy-2-((S)-1-methoxy-2,2-dimethylpropyl)-[1,1′-biphenyl]-4-yl)methoxy)phenyl)ethyl)(methyl)phosphinic acid]	Exposure (nM) (unbound), unbound exposure in plasma ([1]; 5 h post-dose): 0.03 nM; concentration at 5 h ([1]; 5 h post-dose): 145 nM
50 to 250	COc1cc(-c2ccc(COc3cccc(C(CP(C)(=O)O)C4CC4)c3)cc2CN(C(C)C)C(C)C)c(F)cn1 (single isomer, unassigned) [Compound 13, (2-cyclopropyl-2-(3-((3-((diisopropylamino)methyl)-4-(5-fluoro-2-methoxypyridin-4-yl)benzyl)oxy)phenyl)ethyl)(methyl)phosphinic acid]	Exposure (nM) (unbound), unbound exposure in plasma ([1]; 2 h post-dose): 1.2 nM; concentration at 2 h ([1]; 2 h post-dose): 294 nM
≤ 50	COc1cc(-c2ccc(COc3cc([C@@H](CP(C)(=O)O)C4CC4)ccn3)cc2[C@@H](OC)C(C)(C)C)c(F)cn1 [Compound 28, ((S)-2-cyclopropyl-2-(2-((4-(5-fluoro-2-methoxypyridin-4-yl)-3-((S)-1-methoxy-2,2-dimethylpropyl)benzyl)oxy)pyridin-4-yl)ethyl)(methyl)phosphinic acid]	–
≤ 50	COc1cc(-c2ccc(COc3cccc(C[C@@H](C)P(C)(=O)O)c3)cc2[C@@H](OC)C(C)(C)C)c(F)cn1 [Compound 41, ((R)-1-(3-((4-(5-fluoro-2-methoxypyridin-4-yl)-3-((S)-1-methoxy-2,2-dimethylpropyl)benzyl)oxy)phenyl)propan-2-yl)(methyl)phosphinic acid]	–
> 1000	COc1cc(-c2ccc(COc3cccc(C(CP(C)(=O)O)C4CC4)c3)cc2CN(C(C)C)C(C)C)c(F)cn1 (single isomer, unassigned) [Compound 12, (2-cyclopropyl-2-(3-((3-((diisopropylamino)methyl)-4-(5-fluoro-2-methoxypyridin-4-yl)benzyl)oxy)phenyl)ethyl)(methyl)phosphinic acid]	–
≤ 50	COc1cc(-c2ccc(COc3cccc(C(C)CP(C)(=O)O)c3)cc2[C@@H](OC)C(C)(C)C)c(F)cn1 (stereo partly drawn) [Compound 34, (2-(3-((4-(5-fluoro-2-methoxypyridin-4-yl)-3-((S)-1-methoxy-2,2-dimethylpropyl)benzyl)oxy)phenyl)propyl)(methyl)phosphinic acid]	–
≤ 50	COc1ccc(F)c(-c2ccc(COc3cccc(C(C)CP(C)(=O)O)c3)cc2[C@@H](OC)C(C)(C)C)c1 (single isomer, unassigned) [Compound 33]	–
50 to 250	COc1cc(-c2ccc(COc3cccc(C(CP(C)(=O)O)C4CC4)c3)cc2CN(C(C)C)C(C)C)c(F)cn1 (single isomer, unassigned) [Compound 10, (2-cyclopropyl-2-(3-((3-((diisopropylamino)methyl)-4-(5-fluoro-2-methoxypyridin-4-yl)benzyl)oxy)phenyl)ethyl)(methyl)phosphinic acid]	–
≤ 50	COc1cc(-c2ccc(COc3cccc([C@@H](CP(C)(=O)O)C4CC4)c3)cc2[C@@H](OC)C(C)(C)C)c(F)cn1 [Compound 25, ((S)-2-cyclopropyl-2-(3-((4-(5-fluoro-2-methoxypyridin-4-yl)-3-((S)-1-methoxy-2,2-dimethylpropyl)benzyl)oxy)phenyl)ethyl)(methyl)phosphinic acid]	Exposure (nM) (unbound), unbound exposure in plasma ([1]; 2 h post-dose): 1.1 nM; concentration at 2 h ([1]; 2 h post-dose): 1840 nM
≤ 50	CO[C@H](c1cc(COc2cccc([C@@H](CP(C)(=O)O)C3CC3)c2)ccc1-c1cc(O)ccc1F)C(C)(C)C [Compound 26, ((S)-2-cyclopropyl-2-(3-((2′-fluoro-5′-hydroxy-2-((S)-1-methoxy-2,2-dimethylpropyl)-[1,1′-biphenyl]-4-yl)methoxy)phenyl)ethyl)(methyl)phosphinic acid]	–
≤ 50	COc1cccc(-c2ccc(COc3cccc([C@@H](CP(C)(=O)O)C4CC4)c3)cc2[C@@H](OC)C(C)(C)C)c1 [Compound 29, ((S)-2-cyclopropyl-2-(3-((3′-methoxy-2-((S)-1-methoxy-2,2-dimethylpropyl)-[1,1′-biphenyl]-4-yl)methoxy)phenyl)ethyl)(methyl)phosphinic acid]	Exposure (nM) (unbound), unbound exposure in plasma ([1]; 5 h post-dose): 0.06 nM; concentration at 5 h ([1]; 5 h post-dose): 140 nM

Source: US20230151037A1, “GPR40 AGONISTS” (Kallyope, Inc., priority 2020, published 2023)
